Measured values taken from patent US5543410A, “Pharmacological use of phthaloylhydrazide derivatives; combination and application thereof” (L.I.M.A.D. Limited, priority 1993, dated 1996).
Where two headings read alike, the source gives them in different places.

Key:
[1] = test system: piglets affected by dysentery; test: dysentery in piglets; format: in vivo
Experimental: Experiments were performed with piglets weighing from 30 to 40 kgs, which were affected by dysentery.
Nevertheless, symptoms reappeared six to seven hours later in one group of animals. This factor rendered repeated administration of the drug necessary.

psoriasis = details: 2 to 5 mg/kg
[2] = test system: tumor necrosis factor (TNF)
[3] = test system: non-specific ulcerative colitis and Crohn's disease
Experimental: These patients complained of periodic worsening of their symptoms over periods of three to five years.
100 mg per day of the drug was administered intravenously to these patients for three days.
On subsequent days, intramuscular administration of the drug was provided once daily, along with a 100 mg rectal suppository.

[4] = test system: convulsions caused by Corazolum and strychnine; details: 30 and 60 mg/kg
[5] = test system: suppuration of a paracolostomy incision
Experimental: The patient cited pain in the region affected by infiltration, and an increase in body temperature was observed. A suppository containing 200 mg of the drug was applied to the incision. […] An identical dose of the drug was administered again twelve hours later.

AIDS = test system: AIDS
Experimental: Treatment began with intramuscular administration of 100 mg doses of the drug, once daily.
The daily dosage of the drug was then increased to 400 mg.

[6] = test system: dermatitis of unknown etiology
Experimental: The patient was treated for fourteen days.
The affected cutaneous areas were treated three times daily with a water-soluble emulsion containing 30 mg of the drug, and, on alternating days, suppositories containing 50 mg of the drug (5 mg/kg according to weight) were administered rectally.

[7] = test system: chronic inflammation of female genitalia; details: 100 mg once each day
Experimental: The drug was administered to these patients in the form of rectal suppositories (to be inserted at night), in doses of 100 mg once each day, for a five-day period. Subsequently, vaginal insertion was performed for an additional period of two days.

pregnant female rats = details: 60 mg/kg single dose, intraperitoneal
Experimental: Tests pertaining to teratogenicity and embryotoxicity were performed upon fifty-eight pregnant female rats. A single dose (60 mg/kg) was injected intraperitoneally on the first, third, seventh, tenth, fourteenth, or seventeenth days of gestation. These rats were decapitated on the twenty-first day of gestation, and uteri and fetuses were examined.

erysipelas = test: erysipelas
Experimental: During the patient's hospitalization, their condition was determined to be of moderate severity. […] This area was painful and warm when it was palpated. General loss of strength and a higher body temperature, up to 38.6° C., were also observed.
The respective compound was applied to the affected area of the patient's skin in the form of a 1 percent ointment. Suppositories containing 100 mg of the drug were prescribed at the same time.
Subsequently, the patient was treated with the drug in the form of suppositories for five days.
Objective indications included: a congested segment of skin on the front surface of the leg; this area protruded from the surface and it was painful when palpated. Body temperature: 37.8° C. The patient was experiencing generally disagreeable sensations, and intense pain in the vicinity of the inflamed area.
A 4 percent solution of the drug within a 20 percent DMSO solution was applied to the affected cutaneous area.

[8] = test system: suppuration and abscesses affecting the jaw; details: one day after
Experimental: The patients were subdivided into three groups according to alphabetical order. The drug was prescribed for every patient on one occasion, although different dosages were adopted (1 mg/kg; 2 mg/kg; 4 mg/kg).

[9] = general pharmacological / toxicological assessment; format: in vivo
leucocytes = details: inflammation of the cornea
[10] = test system: mice exposed to carbon tetrachloride; details: 10 to 20 mg/kg; control group 65 percent
[11] = test system: Salmonella typhinurium endotoxin
Experimental: These experiments were performed upon rabbits. Salmonella typhinurium endotoxin which had been purified by Bolvin's method was used in doses of 1 mg/kg according to body weight.
During the second series of experiments, the drug was administered intravenously in doses of 15 mg/kg according to body weight when clinical manifestations appeared (thirty to forty minutes after the commencement of the experiment). […] During the third series of experiments, the drug was administered five minutes after endotoxin inoculation.

skin diseases = details: 1 to 2 percent solution, two or three days
[12] = test system: proctitis attributable to radiation therapy
Description: B., a patient who was […], complained of burning sensations in the anus, along with frequent and painful urination, after having received radiation therapy for a period of forty-five days. During a rectosigmoidoscopy examination, intense edema and contact hemorrhaging within the rectal mucosae were observed above the tumor. The diagnosis was: proctitis and cystitis arising from radiation therapy. On account of a lack of specific therapeutic measures, the drug was prescribed for the patient according to a dose of 100 mg per day.

male mice = details: 30 and 60 mg/kg
Experimental: Doses of 30 mg/kg and 60 mg/kg according to body weight were used for studying pharmacological properties in relation to the central nervous system. Selection of this dosage level was based upon criteria in terms of safety in using drugs.
Neuropharmacological effects were studied in sexually mature male mice from unspecified strains. A solution of the drug was administered intraabdominally to these mice, with weights of 18.0 g to 20.0 g, and neuropharmacological effects were studied in terms of changes in the natural orientation reflex, in induced aggressiveness, and in muscle tone. Changes in natural orientation were recorded according to current methods. For determining the drug's influence upon induced aggressiveness, the electrical stimulation method (an electrical current which caused pain was transmitted) was adopted.
Changes in muscle tone were measured according to the "pivot pin" method.

anal fissures = test system: anal fissures
Experimental: Similarly, anal fissures have represented a difficult problem for modern medicine to resolve. In this instance, the inflammatory component is associated with a morphological defect.
The drug was administered to this group of patients in the form of suppositories, in doses of 100 mg every twelve hours, during a five-day period.

metabolic products = format: in vivo; details: in vivo; read-out: fraction of compound decomposed into 5-aminophthalic acid, oxygen, and nitrogen
[13] = test system: abortion induced by Salmonella typhinurium endotoxin; details: 15 mg/kg; abortions in eighty percent without drug
[14] = test system: TA 100, TA 102, and TA 97 S. typhi strains; test: Ames' bacterial mutagenicity test; details: 0.01 mg/ml to 2 mg/ml, rat liver microsome activation
[15] = 1 percent ointment plus 100 mg suppositories
[16] = 15 mg/kg intravenous, when clinical manifestations appeared
[17] = 100 mg suppositories morning and evening
[18] = after five to six days of treatment

Description for proctosigmoiditis: Treatment was provided for nine patients affected by proctosigmoiditis; their ages were between forty and fifty-five years. These patients had complained of irregular defecation, protrusion of the mucosae from the anus, and minor pain in the ileum, on the left side.
During visual examination of the intestine, it was observed that the mucosae of the rectal and sigmoid portions of the colon were affected by edema. In addition, images of the capillary network were blurred, and a fibrous film was present within limited segments. The drug was administered to these patients in the form of rectal suppositories, in doses of 100 mg per day, subsequent to enemas.

Nc1cccc2c(=O)[nH][nH]c(=O)c12
effectiveness in alleviating diarrhea ([1]; 50 mg/kg, fourth series): limited effectiveness in alleviating diarrhea | therapeutic effect ([1]; 10, 25, and 50 mg/kg, third series): relatively insignificant | reappearance of dysentery symptoms ([1]; 20 and 50 mg/kg, second series): symptoms of dysentery reappeared at the end of the first day | instances with therapeutic effects ([1]; 20 and 50 mg/kg, sixteen animals, second series): six | erythema at the site of administration (guinea pigs; even large doses): Erythema was not encountered | indications of allergies (guinea pigs; subcutaneous or oral administration): no indications of allergies were observed | development of psoriasis (psoriasis): did not substantially influence the development of psoriasis | action of TNF in mutated cells [2]: intensifies the action of the tumor necrosis factor (TNF) in mutated cells | time until abdominal and joint pain lessened ([3]; 100 mg per day intravenous): Thirty | frequency of defecation ([3]; first three days): frequency of defecation was reduced | frequency of defecation ([3]; fourteenth day): once or twice | rectosigmoidoscopy finding ([3]; in vivo): did not reveal the presence of pus or blood, although traces of an inflammatory process were observed within mucous membranes | frequency of defecation ([3]; sixth day): two or three | pain and skin eruptions ([3]; sixth day): They were no longer experiencing pain, their skin eruptions had disappeared | prevention of convulsions [4]: did not prevent convulsions | time to decline of temperature ([5]; 200 mg suppository): Six | time until pain ceased ([5]; 200 mg suppository applied to incision): twenty to thirty | wound ([5]; six days of treatment): the wound was wholly devoid of pus | edema within soft tissues ([5]; twenty-one hours after commencement): had decreased significantly | therapeutic effects (AIDS; 100 mg intramuscular once daily, three days): no therapeutic effects had been observed | complications of AIDS (AIDS; 5 to 15 mg/kg daily, extended period): significant prevention or reduction of complications | further symptoms (AIDS; continued daily administration): further symptoms of the disease did not appear | therapeutic action (AIDS; daily dose doubled): still not observable | effectiveness of standard doses (AIDS; standard doses for inflammatory diseases): limited effectiveness | time to completed epithelization ([6]; 30 mg emulsion three times daily, 50 mg suppositories on alternating days): fourteenth | affected cutaneous areas ([6]; after the second day): began to become drier | time to healing [7]: eighth | time until vaginal secretions ceased completely [7]: fifth | therapeutic effect ([7]; second day): the therapeutic effect was observable | fetal abnormalities (pregnant female rats): No fetal abnormalities were found | time until congestion and edema had diminished (erysipelas; [15]): twenty-four | time until pain became less intense (erysipelas; [15]): five to six | difficulties (erysipelas; by the end of the sixth day): the patient no longer cited difficulties | therapeutic effect ([8]; 1 mg/kg): no therapeutic effect had occurred | patients with therapeutic effect ([8]; 2 mg/kg): four | patients with therapeutic effect ([8]; 4 mg/kg, each of the six patients): six | storage period (stable) (anhydrous conditions): > 1 year | expiration period (aqueous solution): > ten to twenty | toxicity ([9]; acceptable dosages): wholly non-toxic | level of pharmacological activity ([9]; determined experimentally): higher level of pharmacological activity | leucocyte adhesion properties and chemotaxis (leucocytes): An increase in leucocyte adhesion properties and intensification of chemotaxis | mortality rate [10]: 14% | diarrhea [11, 16]: diarrhea ceased completely | time to reduction of intoxication symptoms [11, 16]: five to ten | alleviation of intoxication symptoms and diarrhea ([11]; 25 mg/kg): complete alleviation of intoxication symptoms and diarrhea | intoxication symptoms (conclusion) ([11]; 15 to 25 mg/kg): prevent or eliminate intoxication symptoms | alleviation of symptoms ([11]; drug five minutes after endotoxin, third series): partial alleviation of symptoms | time until symptoms and pain disappeared (proctosigmoiditis; 100 mg per day rectal suppositories): one | complaints (proctosigmoiditis; by the seventh day): the patients no longer complained of symptoms | rectosigmoidoscopy finding (proctosigmoiditis; checkups): renewal of normal conditions was observed within the rectal mucosae and within the sigmoid colon | elimination of symptoms (skin diseases): sufficient to eliminate symptoms of various diseases | clinical effect ([12]; 100 mg per day, three days): absence of any significant clinical effect | time to decrease of anal burning and painful urination [12, 17]: one | time until pain and burning no longer present [12, 17]: third | time to normal urination ([12]; after the dosage was increased): fifth | rectosigmoidoscopy finding ([12]; ten days later): regeneration of the capillary network within the rectal mucosae was observed | threshold for sensitivity to pain (male mice): did not alter the threshold for sensitivity to pain | natural orientation reflex (male mice; intraabdominal): did not suppress the natural orientation reflex | muscle tone (male mice; pivot pin method): did not cause changes in muscle tone | time until pain ceased (anal fissures; 100 mg suppositories every twelve hours): twenty to thirty | recurrences (anal fissures; [18]): Recurrences were not observed | regeneration of the mucosae (anal fissures; [18]): regeneration of the mucosae was visually observable | defecation and sphincter spasms (anal fissures; after the third suppository): defecation became painless, and spasms affecting the sphincter diminished | recovery (anal fissures; by the fifth day): the patients had practically recovered | other symptoms (anal fissures; rectal administration): other symptoms were also eliminated by the end of the first day of treatment | time to significant alleviation of the pain syndrome (anal fissures; rectal administration): twenty to forty | metabolised (metabolic products): > 90% | abortion prevented [13]: seven | inhibitory or mutagenic activity [14]: did not possess inhibitory or mutagenic activity
